Laboratory results: ChEMBL document CHEMBL1126456, “Vinylogous hydroxamic acids: 5-lipoxygenase inhibitors” (Bioorg Med Chem Lett, 1992)

Key:
[1] = biological target: T1, Polyunsaturated fatty acid 5-lipoxygenase (Rattus norvegicus, UniProt P12527); experiment: Inhibition of 5-Lipoxygenase of rat basophilic leukemia cells; assay type: cell-based, RBL-1
T1 sequence (P12527 whole entry): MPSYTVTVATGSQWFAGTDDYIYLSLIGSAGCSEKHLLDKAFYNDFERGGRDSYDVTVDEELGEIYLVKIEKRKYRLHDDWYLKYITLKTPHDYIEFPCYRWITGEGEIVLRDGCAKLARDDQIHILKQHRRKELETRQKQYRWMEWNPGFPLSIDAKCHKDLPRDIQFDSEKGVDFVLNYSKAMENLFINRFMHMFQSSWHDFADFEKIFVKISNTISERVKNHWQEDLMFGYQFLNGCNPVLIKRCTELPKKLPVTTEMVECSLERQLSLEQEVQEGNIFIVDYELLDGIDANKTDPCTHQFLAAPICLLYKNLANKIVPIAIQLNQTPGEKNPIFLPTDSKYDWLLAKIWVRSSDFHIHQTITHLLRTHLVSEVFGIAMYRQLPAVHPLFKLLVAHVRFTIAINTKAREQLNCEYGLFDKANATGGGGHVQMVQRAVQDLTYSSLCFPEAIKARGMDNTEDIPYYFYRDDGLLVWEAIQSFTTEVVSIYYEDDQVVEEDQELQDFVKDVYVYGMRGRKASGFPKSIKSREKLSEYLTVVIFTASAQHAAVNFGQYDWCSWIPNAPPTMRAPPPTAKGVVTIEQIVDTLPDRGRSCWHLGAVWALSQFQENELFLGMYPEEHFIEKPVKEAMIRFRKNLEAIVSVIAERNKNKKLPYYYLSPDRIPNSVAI

Cyclooxygenase = biological target: T2, Cyclooxygenase (Bos taurus, UniProt O62664+O62698); experiment: Compound was evaluated for inhibition against cyclooxygenase of bovine seminal vesicles; assay type: protein assay
T2 sequence (O62664 whole entry): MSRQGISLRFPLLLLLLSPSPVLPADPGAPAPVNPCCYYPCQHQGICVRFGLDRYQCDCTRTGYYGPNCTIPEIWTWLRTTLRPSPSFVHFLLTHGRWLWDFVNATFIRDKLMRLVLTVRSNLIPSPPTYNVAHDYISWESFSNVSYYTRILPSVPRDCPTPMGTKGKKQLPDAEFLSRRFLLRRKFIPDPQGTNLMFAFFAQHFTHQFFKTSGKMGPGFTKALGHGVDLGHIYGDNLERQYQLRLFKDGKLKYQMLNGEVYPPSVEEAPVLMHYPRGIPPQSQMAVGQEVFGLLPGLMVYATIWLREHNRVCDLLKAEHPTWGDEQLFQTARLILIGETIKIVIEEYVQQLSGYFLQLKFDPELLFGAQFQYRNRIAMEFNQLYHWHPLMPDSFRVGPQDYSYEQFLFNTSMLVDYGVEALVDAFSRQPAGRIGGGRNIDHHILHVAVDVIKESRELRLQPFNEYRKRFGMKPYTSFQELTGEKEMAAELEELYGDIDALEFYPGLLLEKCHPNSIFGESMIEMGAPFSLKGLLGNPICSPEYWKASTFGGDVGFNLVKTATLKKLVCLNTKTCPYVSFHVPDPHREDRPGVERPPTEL
T2 sequence (O62698 whole entry): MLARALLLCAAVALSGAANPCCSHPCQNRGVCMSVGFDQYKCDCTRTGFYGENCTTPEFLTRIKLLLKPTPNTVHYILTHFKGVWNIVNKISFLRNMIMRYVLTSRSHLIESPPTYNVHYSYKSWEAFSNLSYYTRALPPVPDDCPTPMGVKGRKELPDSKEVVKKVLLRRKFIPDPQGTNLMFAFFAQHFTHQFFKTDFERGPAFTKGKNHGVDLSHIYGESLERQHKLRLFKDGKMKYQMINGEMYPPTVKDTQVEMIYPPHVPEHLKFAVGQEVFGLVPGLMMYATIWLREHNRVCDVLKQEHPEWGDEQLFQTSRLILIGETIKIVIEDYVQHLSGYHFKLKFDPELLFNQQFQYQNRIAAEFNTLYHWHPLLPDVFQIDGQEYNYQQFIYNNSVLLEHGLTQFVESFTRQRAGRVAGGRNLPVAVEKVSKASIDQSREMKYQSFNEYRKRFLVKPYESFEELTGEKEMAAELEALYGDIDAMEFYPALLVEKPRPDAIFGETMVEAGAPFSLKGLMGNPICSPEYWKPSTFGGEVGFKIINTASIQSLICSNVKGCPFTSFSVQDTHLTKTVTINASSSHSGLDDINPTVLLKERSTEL

Work on `C/C(=C/N(O)Cc1ccccc1)C(=O)c1ccc(F)cc1` yielded an IC50 [1] of 300 nM.
In the case of `O=C(/C=C\N(O)Cc1ccccc1)c1ccc(F)cc1`, the IC50 (Cyclooxygenase) is reported as > 750 µM.
For `CC(=O)ON(/C=C\C(=O)c1ccc(F)cc1)Cc1ccccc1`, the IC50 (Cyclooxygenase) was > 750 µM.
In the case of `CON(/C=C\C(=O)c1ccc(F)cc1)Cc1ccccc1`, the IC50 (Cyclooxygenase) is reported as > 750 µM.
For `O=C(/C=C\N(O)C1CCCCC1)c1ccc(F)cc1`, the IC50 (Cyclooxygenase) was > 750 µM.
With `O=C1CCN(c2ccccc2)N1` [PHENIDONE] the IC50 (Cyclooxygenase) was 6.9 µM.
In the case of `CC(c1cc2ccccc2s1)N(O)C(N)=O` (configuration not stated) [ZILEUTON], the IC50 (Cyclooxygenase) is reported as > 750 µM.
